Read-outs that look alike come from different tables or passages of the source.
Assays:
[1] = system: HCMV (strain AD169); experiment: Inhibition of HCMV replication, plaque reduction assay (PRA, Hs-68 cells); assay type: cell-based, Human Cytomegalovirus (HCMV); conditions: read-out: PRA CMV EC50
Method in brief: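 Hs-68 monolayers (80–90% confluent) were infected with ~50 PFU HCMV AD169 for 2 h at 37°, then given compound in DMEM/5% inactivated FBS, refreshed after 4 days and kept 4 more days. Plaques were counted after formaldehyde fixation and crystal violet staining. EC50 derives from percent plaque reduction versus untreated wells.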

[2] = system: HSV-1 strain F or KOS; experiment: Inhibition of herpes simplex virus (HSV-1) replication in cell culture (BHK-21 cells, glycoprotein C ELISA); assay type: cell-based; conditions: Human alphaherpesvirus 1, BHK-21, Group 1 Table 1 entries
Method in brief: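 Replication readout: ELISA for HSV-1 late glycoprotein C (mAb C11, peroxidase-OPD, 450 nm) on glutaraldehyde-fixed cells. Monolayers (~50,000 cells/well) were infected with strain F or KOS (MOI 0.05 PFU/cell), then incubated 24 h at 37° with compound in 2% FBS α-MEM. EC50 derived from % inhibition.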

[3] = biological target: T1, HSV-1 helicase-primase (Human herpesvirus 1, UniProt P10189+P10236); experiment: HSV-1 DNA-dependent ATPase assay (inhibition of HSV-1 helicase-primase); assay type: biochemical; conditions: Group 1 Table 1 entries
T1 construct: made in house; host or cells: Sf21 insect cells triply infected with recombinant baculoviruses (UL5, UL8, UL52)
Method in brief: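 ATP hydrolysis was measured as inorganic phosphate (malachite green/molybdate, 650 nm) after 20 min at 34°. Reaction: 3 μg/mL purified Sf21-expressed UL5/UL8/UL52 helicase-primase, 25 μM single-stranded M13 DNA hybridized to 68-mer, 4 mM ATP, pH 7.5 HEPES buffer, 3.3% DMSO. Net absorbance change with and without inhibitor gave DNA-dependent ATPase activity.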

[4] = Human betaherpesvirus 5, AD169, Hs68, Group 1 Table 1 entries

T1 sequence (P10192 whole entry): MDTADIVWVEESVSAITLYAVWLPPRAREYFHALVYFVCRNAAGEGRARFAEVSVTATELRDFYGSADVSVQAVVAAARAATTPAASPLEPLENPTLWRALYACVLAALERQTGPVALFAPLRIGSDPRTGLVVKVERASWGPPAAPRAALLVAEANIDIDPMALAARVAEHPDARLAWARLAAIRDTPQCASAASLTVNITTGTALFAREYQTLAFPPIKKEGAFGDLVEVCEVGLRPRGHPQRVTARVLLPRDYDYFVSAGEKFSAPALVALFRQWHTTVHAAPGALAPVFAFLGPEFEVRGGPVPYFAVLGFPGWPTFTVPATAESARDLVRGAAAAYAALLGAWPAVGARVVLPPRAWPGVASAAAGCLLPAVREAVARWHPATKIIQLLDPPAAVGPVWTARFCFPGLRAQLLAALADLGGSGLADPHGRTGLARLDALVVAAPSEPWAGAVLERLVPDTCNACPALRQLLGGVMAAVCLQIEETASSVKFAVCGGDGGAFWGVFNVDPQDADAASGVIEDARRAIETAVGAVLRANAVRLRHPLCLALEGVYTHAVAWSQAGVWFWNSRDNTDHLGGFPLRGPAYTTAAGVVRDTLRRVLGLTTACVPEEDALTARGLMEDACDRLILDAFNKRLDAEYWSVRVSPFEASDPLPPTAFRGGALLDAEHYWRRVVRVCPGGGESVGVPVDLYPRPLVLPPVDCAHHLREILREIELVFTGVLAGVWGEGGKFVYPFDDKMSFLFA
T1 sequence (P10236 whole entry): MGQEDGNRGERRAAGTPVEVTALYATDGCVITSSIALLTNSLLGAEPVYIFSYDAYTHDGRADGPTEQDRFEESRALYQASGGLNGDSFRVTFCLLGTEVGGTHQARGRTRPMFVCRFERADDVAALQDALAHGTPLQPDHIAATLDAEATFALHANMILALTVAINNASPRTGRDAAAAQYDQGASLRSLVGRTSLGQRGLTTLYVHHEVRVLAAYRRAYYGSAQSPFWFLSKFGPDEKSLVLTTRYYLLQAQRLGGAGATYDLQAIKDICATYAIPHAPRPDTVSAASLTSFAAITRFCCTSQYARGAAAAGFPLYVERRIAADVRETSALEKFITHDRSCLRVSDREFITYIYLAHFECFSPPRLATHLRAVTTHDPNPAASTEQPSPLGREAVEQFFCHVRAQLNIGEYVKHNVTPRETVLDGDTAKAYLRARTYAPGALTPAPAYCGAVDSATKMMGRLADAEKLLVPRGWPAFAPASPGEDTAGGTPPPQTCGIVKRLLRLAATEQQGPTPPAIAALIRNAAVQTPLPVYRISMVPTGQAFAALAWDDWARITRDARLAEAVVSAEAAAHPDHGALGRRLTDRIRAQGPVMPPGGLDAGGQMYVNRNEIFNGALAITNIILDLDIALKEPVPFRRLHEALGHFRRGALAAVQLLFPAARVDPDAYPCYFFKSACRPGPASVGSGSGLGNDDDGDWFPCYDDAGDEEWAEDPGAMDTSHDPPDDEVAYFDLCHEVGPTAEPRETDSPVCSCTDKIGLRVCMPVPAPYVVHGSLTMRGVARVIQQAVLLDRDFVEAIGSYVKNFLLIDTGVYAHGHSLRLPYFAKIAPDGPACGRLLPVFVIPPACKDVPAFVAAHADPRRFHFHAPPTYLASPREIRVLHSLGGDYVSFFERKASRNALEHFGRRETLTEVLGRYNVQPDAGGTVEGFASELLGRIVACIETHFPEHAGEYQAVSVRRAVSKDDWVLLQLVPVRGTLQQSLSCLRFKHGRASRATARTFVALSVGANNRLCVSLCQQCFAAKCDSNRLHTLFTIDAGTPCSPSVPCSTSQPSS
T1 sequence (P10189 whole entry): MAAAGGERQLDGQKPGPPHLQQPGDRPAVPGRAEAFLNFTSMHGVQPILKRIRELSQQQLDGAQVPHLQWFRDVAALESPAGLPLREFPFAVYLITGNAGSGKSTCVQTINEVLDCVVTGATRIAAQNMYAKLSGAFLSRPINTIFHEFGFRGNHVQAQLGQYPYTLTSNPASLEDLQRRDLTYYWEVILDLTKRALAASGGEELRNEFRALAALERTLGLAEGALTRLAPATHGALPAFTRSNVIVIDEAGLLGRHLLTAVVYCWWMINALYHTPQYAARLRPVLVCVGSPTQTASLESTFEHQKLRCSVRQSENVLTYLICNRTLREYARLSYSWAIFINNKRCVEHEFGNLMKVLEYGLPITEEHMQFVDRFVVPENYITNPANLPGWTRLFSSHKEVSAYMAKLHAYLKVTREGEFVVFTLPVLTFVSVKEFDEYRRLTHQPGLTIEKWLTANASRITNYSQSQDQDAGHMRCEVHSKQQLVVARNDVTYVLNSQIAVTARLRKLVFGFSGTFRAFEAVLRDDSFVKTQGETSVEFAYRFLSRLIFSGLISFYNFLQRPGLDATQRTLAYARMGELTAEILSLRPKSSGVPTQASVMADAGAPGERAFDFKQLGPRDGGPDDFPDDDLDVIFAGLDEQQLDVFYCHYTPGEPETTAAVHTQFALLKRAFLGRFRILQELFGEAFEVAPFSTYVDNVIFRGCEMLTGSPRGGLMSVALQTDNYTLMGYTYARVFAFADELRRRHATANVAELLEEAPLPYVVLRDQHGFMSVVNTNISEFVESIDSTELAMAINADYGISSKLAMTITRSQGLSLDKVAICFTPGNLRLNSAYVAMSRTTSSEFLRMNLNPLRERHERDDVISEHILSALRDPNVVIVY

Compound | EC50 [1, 4] | EC50 [2] | IC50 [3] | EC50 ([1]; Group 1 Table 1 entries) | inhibition at 50 µM ([3]; at 50 μM, read-out: inhibition at 50 μM (printed in the HSV-1 IC50 column))
Nc1nc(-c2ccc(NC(=O)CN(Cc3ccccc3)C(=O)c3ccncc3)cc2)cs1 [Example 29] | 27000 nM | 35 nM | 240 nM | – | –
Nc1nc(-c2ccc(NC(=O)CN(Cc3ccccc3)C(=O)c3cc[n+]([O-])cc3)cc2)cs1 [Example 30] | > 88000 nM | 430 nM | 440 nM | – | –
Nc1nc(-c2ccc(NC(=O)CN(Cc3ccccc3)C(=O)Cc3ccccn3)cc2)cs1 [Example 31] | 8100 nM | 400 nM | 1600 nM | – | –
Nc1nc(-c2ccc(NC(=O)CN(Cc3ccccc3)C(=O)c3cccs3)cc2)cs1 [Example 32] | 8500 nM | 40 nM | 420 nM | – | –
Nc1nc(-c2ccc(NC(=O)CN(Cc3ccccc3)C(=O)c3cnccn3)cc2)cs1 [Example 33] | 20000 nM | 170 nM | 1100 nM | – | –
Nc1nc(-c2ccc(NC(=O)CN(Cc3ccccc3)C(=O)C3CCCCC3)cc2)cs1 [Example 34] | 15000 nM | 4 nM | 26 nM | – | –
Nc1nc(-c2ccc(NC(=O)CN(Cc3ccccc3)C(=O)C3CCCC3)cc2)cs1 [Example 36] | 16000 nM | 5 nM | 41 nM | – | –
Nc1nc(-c2ccc(NC(=O)CN(Cc3ccccc3)C(=O)CC3CCCCC3)cc2)cs1 [Example 38] | 4600 nM | 16 nM | 88 nM | – | –
Nc1nc(-c2ccc(NC(=O)CN(Cc3ccccc3)C(=O)CC3CCCC3)cc2)cs1 [Example 39] | 8500 nM | 9 nM | 59 nM | – | –
CC(C)(C)C(=O)N(CC(=O)Nc1ccc(-c2csc(N)n2)cc1)Cc1ccccc1 [Example 41] | 34000 nM | 36 nM | 800 nM | – | –
CC(C)(C)CC(=O)N(CC(=O)Nc1ccc(-c2csc(N)n2)cc1)Cc1ccccc1 [Example 42] | 20000 nM | 2 nM | 26 nM | – | –
CC(C)C(=O)N(CC(=O)Nc1ccc(-c2csc(N)n2)cc1)Cc1ccccc1 [Example 43] | 13000 nM | 130 nM | 1600 nM | – | –
CC(=O)N(CC(=O)Nc1ccc(-c2csc(N)n2)cc1)Cc1ccccc1 [Example 44] | 37000 nM | 750 nM | 3300 nM | – | –
Nc1nc(-c2ccc(NC(=O)CN(Cc3ccccn3)C(=O)C3CCCCC3)cc2)cs1 [Example 47] | > 103000 nM | 13 nM | 72 nM | – | –
Nc1nc(-c2ccc(NC(=O)CN(Cc3cccnc3)C(=O)C3CCCCC3)cc2)cs1 [Example 48] | 49000 nM | 40 nM | 140 nM | – | –
Nc1nc(-c2ccc(NC(=O)CN(Cc3ccncc3)C(=O)C3CCCCC3)cc2)cs1 [Example 49, N-{2-{{4-(2-amino-4-thiazolyl)phenyl}amino}-2-oxoethyl}-N-(4-pyridinylmethyl)cyclohexanecarboxamide] | 23000 nM | 12 nM | 37 nM | – | –
Nc1nc(-c2ccc(NC(=O)CN(CCc3ccccn3)C(=O)C3CCCCC3)cc2)cs1 [Example 50] | 13000 nM | 68 nM | 600 nM | – | –
Nc1nc(-c2ccc(NC(=O)CN(Cc3cccs3)C(=O)C3CCCCC3)cc2)cs1 [Example 51] | 11000 nM | 2 nM | 63 nM | – | –
C[C@H](c1ccccc1)N(CC(=O)Nc1ccc(-c2csc(N)n2)cc1)C(=O)C1CCCCC1 [Example 52] | 6000 nM | 13 nM | 87 nM | – | –

Compound | EC50 [1, 4] | EC50 [2] | IC50 [3] | EC50 ([1]; Group 1 Table 1 entries) | inhibition at 50 µM ([3]; at 50 μM, read-out: inhibition at 50 μM (printed in the HSV-1 IC50 column))
C[C@@H](c1ccccc1)N(CC(=O)Nc1ccc(-c2csc(N)n2)cc1)C(=O)C1CCCCC1 [Example 53] | 12000 nM | 3 nM | 38 nM | – | –
C[C@@H](c1ccccc1)N(CC(=O)Nc1ccc(-c2csc(N)n2)cc1)C(=O)c1ccncc1 [Example 58] | 30000 nM | 40 nM | 190 nM | – | –
Nc1nc(-c2ccc(NC(=O)CN(CC3CCCCC3)C(=O)c3ccccc3)cc2)cs1 [Example 60] | – | 540 nM | 1500 nM | 15000 nM | –
Nc1nc(-c2ccc(NC(=O)CN(CC3CCCCC3)C(=O)C3CCNCC3)cc2)cs1 [Example 62] | 38000 nM | 5500 nM | – | – | 29%
Nc1nc(-c2ccc(NC(=O)CN(CC3CCCCC3)C(=O)C3CCCC3)cc2)cs1 [Example 63] | > 21000 nM | 250 nM | 780 nM | – | –
Nc1nc(-c2ccc(NC(=O)CN(CCc3ccccc3)C(=O)C3CCCC3)cc2)cs1 [Example 66] | > 10000 nM | 90 nM | 400 nM | – | –
CC(C)(C)OC(=O)NCC(=O)N(CC(=O)Nc1ccc(-c2csc(N)n2)cc1)Cc1ccccc1 [Example 72] | 24000 nM | 670 nM | 650 nM | – | –
Nc1nc(-c2ccc(NC(=O)CN(CC3CCCCC3)C(=O)Cc3ccccc3)cc2)cs1 [Example 77] | 7500 nM | 190 nM | 370 nM | – | –
Nc1nc(-c2ccc(NC(=O)CN(CCc3ccccn3)C(=O)C3CCCC3)cc2)cs1 [Example 79] | 55000 nM | 160 nM | 840 nM | – | –
CC(C)(C)CN(CC(=O)Nc1ccc(-c2csc(N)n2)cc1)C(=O)C1CCCCC1 [Example 80] | 9500 nM | 310 nM | 960 nM | – | –
CCCC(CCC)N(CC(=O)Nc1ccc(-c2csc(N)n2)cc1)C(=O)C1CCCCC1 [Example 82] | 7000 nM | 60 nM | 620 nM | – | –
Nc1nc(-c2ccc(NC(=O)CN(Cc3ccc(F)cc3)C(=O)c3ccncc3)cc2)cs1 [Example 84] | 37000 nM | 140 nM | 360 nM | – | –
CC(C)(C)OC(=O)N(CC(=O)Nc1ccc(-c2csc(N)n2)cc1)Cc1ccccc1 [Example 85] | 12000 nM | 10 nM | 16 nM | – | –
C[C@@H](c1ccccc1)N(CC(=O)Nc1ccc(-c2csc(N)n2)cc1)C(=O)OC(C)(C)C [Example 89] | 38000 nM | 36 nM | 98 nM | – | –
CC(C)(C)OC(=O)N(CC(=O)Nc1ccc(-c2csc(N)n2)cc1)Cc1ccncc1 [Example 90] | 88000 nM | 15 nM | 58 nM | – | –
CC(C)(C)NC(=S)N(CC(=O)Nc1ccc(-c2csc(N)n2)cc1)Cc1ccccc1 [Example 93] | > 24000 nM | 120 nM | 160 nM | – | –
Nc1nc(-c2ccc(NC(=O)CN(Cc3ccccc3)S(=O)(=O)c3ccccc3)cc2)cs1 [Example 97] | 15000 nM | 130 nM | 310 nM | – | –
CCC(CC)C(=O)N(CC(=O)Nc1ccc(-c2csc(N)n2)cc1)Cc1ccccc1 [Example 104] | > 18000 nM | 16 nM | 78 nM | – | –
CN(C)CCN(CC(=O)Nc1ccc(-c2csc(N)n2)cc1)C(=O)C1CCCCC1 [Example 140] | 29000 nM | 9200 nM | 48000 nM | – | –

Reference: US6288091A, “Antiherpes virus compounds and methods for their preparation and use” (Boehringer Ingelheim Ltd., priority 1999, dated 2001)
